Data on 2 compounds can be found in patent US20250222120A1, “SYNTHESIS OF NOVEL SMALL MOLECULE CARM1 DEGRADERS, COMPOUNDS FORMED THEREBY, AND PHARMACEUTICAL COMPOSITIONS CONTAINING THEM” (Wisconsin Alumni Research Foundation, priority 2024, published 2025).

In experiment [1] the test system is MCF7 cells. The experiment in a line: Global quantitative proteomic analysis of MCF7 cells by mass spectrometry. The class given is cell-based, Homo sapiens. The conditions noted are these: 25 nM, 4 h, two-fold cutoff, p-value ≤0.05, 3491 proteins quantified. As for the experimental part:
Sample preparation for global proteomics analysis. Sample preparation is similar to the previous report (Ma et al. “Strategy Based on Deglycosylation, Multiprotease, and Hydrophilic Interaction Chromatography for Large-Scale Profiling of Protein Methylation” Anal. Chem. 2017, 89 (23), 12909-12917). Briefly, treated MCF7 cells were harvested by washing with PBS buffer (Gibco, pH 7.4) and lysed in RIPA buffer supplemented with protease inhibitors for 20 min, then protein concentration was determined using a BCA Protein Assay Kit (Thermo Pierce, Rockford, IL) per manufacturer instructions. […] The concentrations of the peptide mixture were measured by peptide assay (Thermo Fisher Scientific). […]
LC-MS/MS data acquisition. Samples were analyzed on an Orbitrap Fusion Lumos Tribrid mass spectrometer (Thermo Fisher Scientific) coupled to a Dionex UltiMate 3000 UPLC system. […]
Data analysis. Protein identification and quantification by MaxQuant (version 1.5.3.8) based database searching, using the integrated Andromeda search engine with FDR <1% at peptide and protein levels. […] For label-free protein quantification (LFQ), the MaxQuant LFQ algorithm was used to quantitate the MS signals, and the proteins' intensities were represented in LFQintesnit (Schaab et al. “Analysis of High Accuracy, Quantitative Proteomics Data in the MaxQB Database” Mol. Cell. Proteomics 2012, 11 (3), M111.014068). […]

In experiment [2] the target is T1, CARM1 (Homo sapiens, UniProt Q86X55).
T1 sequence (Q86X55 1-608): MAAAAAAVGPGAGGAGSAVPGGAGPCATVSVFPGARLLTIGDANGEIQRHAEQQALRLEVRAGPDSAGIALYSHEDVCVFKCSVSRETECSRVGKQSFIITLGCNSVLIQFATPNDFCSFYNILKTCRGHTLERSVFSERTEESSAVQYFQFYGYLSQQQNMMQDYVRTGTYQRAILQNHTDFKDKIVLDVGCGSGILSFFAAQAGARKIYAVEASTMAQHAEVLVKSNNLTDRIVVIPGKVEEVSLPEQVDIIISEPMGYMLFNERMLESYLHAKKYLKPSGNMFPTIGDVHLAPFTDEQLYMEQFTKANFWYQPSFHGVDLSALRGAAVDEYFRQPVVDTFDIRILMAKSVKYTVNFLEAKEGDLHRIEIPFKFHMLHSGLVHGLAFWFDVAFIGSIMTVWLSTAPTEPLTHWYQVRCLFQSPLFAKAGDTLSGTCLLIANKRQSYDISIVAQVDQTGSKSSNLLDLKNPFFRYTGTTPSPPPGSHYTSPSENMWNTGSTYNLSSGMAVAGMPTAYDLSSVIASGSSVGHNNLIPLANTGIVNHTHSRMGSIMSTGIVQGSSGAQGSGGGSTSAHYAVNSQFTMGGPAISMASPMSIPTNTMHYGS
Briefly: CARM1 degradation by western blot in MCF7 cells. It counts as cell-based. Also noted: Cell lysates were collected and the CARM1 levels were detected by western blots; endogenous in cells; host or cells: MCF7. As to the method: Based on the structure of TPVC3, CARM1 degraders with stable and flexible alkyl linkages 2a-e were designed and synthesized. Degrader 2b bears the same linker length as TPVC3, while 2a has one less carbon. However, we also changed the hydrolytic labile C═N double bond, which is part of the acylhydrazone motif, in TPVC3 to a C—C bond in compound 2b. This change may influence the required optimal linker length. […] Western blot assays were performed to evaluate the CARM1 degradation activity of the compounds after treating MCF7 cells with these degraders at two concentrations (0.5 and 1.0 μM) for 24 h. […] It has one less carbon atom than 2a in terms of length. […] It has the same linker length as 2d.
The treatment dose and time were determined based on time-course and dose titration experiments (FIG. 4B-4C).
Western Blot Assay. Cells were harvested and washed with Dulbecco's phosphate-buffered saline (PBS), then lysed with 1×RIPA lysis buffer (50 mM Tris pH 7.5, 150 mM NaCl, 1% NP-40, 0.5% sodium deoxycholate, and 0.1% sodium dodecyl sulfate) supplemented with 1 mM phenylmethylsulfonyl fluoride, 10 μg/mL aprotinin, 1 μM leupeptin, and 10 μg/mL pepstatin on ice for 20 min. The supernatant was collected after spinning down at 15000 RPM at 4 degrees Celsius for 10 min. The concentration of whole lysates was quantified using a Bradford assay. 50-75 μg of cell lysates was boiled in 4× Laemmli Loading Dye and boiled at 100 degrees Celsius for 10 min. 25 μg were run in 8% SDS-PAGE gels and transferred to nitrocellulose membranes. Blots were blocked in 5% skim milk in PBST [PBS and 0.1% Tween 20] for 45 min, then incubated with primary antibodies at 4 degrees Celsius overnight. Blots were washed in PBST for 30 min, then incubated with horseradish peroxidase-linked secondary antibodies (Jackson ImmunoResearch) for 1 hr. Afterwards, blots were washed in PBST for 15-30 min, then treated with chemiluminescent ECL reagent and imaged with the ChemiDoc Imaging System (Bio-Rad) or Azure 600 (Azure Biosystems). Expression levels of the indicated proteins were probed by the following antibodies: anti-CARM1, anti-me-BAF155, anti-me-PABP1, anti-PABP1,^7 anti-BAF155 (D7F8S, Cell Signaling Technology), anti-PRMT1 (Bethyl), anti-PRMT6 (D-5, Santa Cruz Biotechnology), anti-β-Actin (ABclonal Technology, Sigma-Aldrich), anti-Hsp90 (H-114, Santa Cruz Biotechnology).
On the technique in general: A western blot detects proteins with antibodies after separation by electrophoresis.

Experiment [3] has as its system BAF155 me2a. Briefly: BAF155 me2a level in BT474 cells, western blot. It counts as cell-based. The settings on record: 10 μM, after 48 h. The text has this: (§1) FIGS. 7A-7F. […] Cell lysates were collected and CARM1, methyl-BAF155, total BAF155, methyl-PABP1, and total PABP1 levels were detected by Western blot. […] Cell lysates were collected and CARM1, methyl-BAF155, total BAF155 levels were detected by Western blot. […] Cell proliferation rate normalized to day 0 was plotted. […] Migrated cells were stained with 1% crystal violet and the percentage of migrated cells were plotted. Data mean±s.d. ***. P≤0.001.
(§2) Western Blot Assay. Cells were harvested and washed with Dulbecco's phosphate-buffered saline (PBS), then lysed with 1×RIPA lysis buffer (50 mM Tris pH 7.5, 150 mM NaCl, 1% NP-40, 0.5% sodium deoxycholate, and 0.1% sodium dodecyl sulfate) supplemented with 1 mM phenylmethylsulfonyl fluoride, 10 μg/mL aprotinin, 1 μM leupeptin, and 10 μg/mL pepstatin on ice for 20 min. The supernatant was collected after spinning down at 15000 RPM at 4 degrees Celsius for 10 min. The concentration of whole lysates was quantified using a Bradford assay. 50-75 μg of cell lysates was boiled in 4× Laemmli Loading Dye and boiled at 100 degrees Celsius for 10 min. 25 μg were run in 8% SDS-PAGE gels and transferred to nitrocellulose membranes. Blots were blocked in 5% skim milk in PBST [PBS and 0.1% Tween 20] for 45 min, then incubated with primary antibodies at 4 degrees Celsius overnight. […]

Experiment [4] deals with BAF155 me2a. Briefly: BAF155 me2a level in MDA-MB-231 cells, western blot. It counts as cell-based. The conditions noted are these: 10 μM, after 48 h.
Source text: as §1, §2

The test system of experiment [5] is MDA-MB-231 cells. Briefly: Transwell migration assay, MDA-MB-231 cells. It counts as cell-based. The conditions noted are these: 10 μM, transwell, 20 h. As to the method:
Transwell Migration Assay. Cells were harvested and washed in serum-free DMEM. The wells of a 24-well plate were filled with 800 μL of DMEM with 10% FBS. Transwell inserts with […] pore size were then added to the wells with DMEM. Cells were resuspended in serum-free DMEM, then 1×10^5 cells in 200 μL were added to the upper chambers. Drug treatments were added to the lower chambers, then incubated for 20 h at 37° C. The cells on the upper surface were removed with cotton swabs. Migratory cells were fixed in 3.7% formaldehyde at room temperature, followed by 100% methanol at −20° C. Fixed cells were stained with 1% crystal violet in 20% methanol for 30 min. The migration area was quantified from five independent fields of view of the lower surface of the membrane under a microscope.

As for `COCCN1CCC(c2cc(CN(C)C(=O)c3cccc(Oc4ccc(OCC(=O)N5CCC(CN6CCC(CN7CCN(CC(=O)N[C@H](C(=O)N8C[C@H](O)C[C@H]8C(=O)N[C@@H](C)c8ccc(-c9scnc9C)cc8)C(C)(C)C)CC7)CC6)CC5)cc4)c3)ccn2)CC1` [Compound 3bN, (2S,4R)-4-hydroxy-1-((S)-2-(2-(4-((1-((1-(2-(4-(3-(((2-(1-(2-methoxyethyl)piperidin-4-yl)pyridin-4-yl)methyl)(methyl)carbamoyl)phenoxy)phenoxy)acetyl)piperidin-4-yl)methyl)piperidin-4-yl)methyl)piperazin-1-yl)acetamido)-3,3-dimethylbutanoyl)-N—((S)-1-(4-(4-methylthiazol-5-yl)phenyl)ethyl)pyrrolidine-2-carboxamide], the “Number of significantly changed proteins compared to the DMSO group” value in experiment [1] came to 45. In experiment [2], the “CARM1 degradation by negative control” value is recorded as “No CARM1 degradation was observed”.
For `CNCCN1CCC(c2cc(CN(C)C(=O)c3cccc(Oc4ccccc4)c3)ccn2)CC1` [TP-064, reference compound], the “BAF155 me2a level” value in experiment [3] and in experiment [4] was “decrease of BAF155 me2a level was observed” in each case. In experiment [5], the Cell migration entry is “inhibited cell migration at a similar level”.
